Patent US7569582B2, “Aminotropane derivatives, preparation thereof and therapeutic use thereof” (Sanofi-Aventis, priority 2004, dated 2009)
Counter-ions that a name gives are not always drawn.

Experiments:
[1] = biological target: T1, human MC4 receptor (Homo sapiens, UniProt P32245); experiment: Affinity assay: displacement of [125I]-[Nle4,D-Phe7]-α-MSH binding to membranes of CHO-K1 cells expressing hMC4 (SPA); conditions: displacement of specific radioligand binding by 50%; radioligand 100 pM; read-out: IC50 with respect to the MC4 receptor
T1 construct: host or cells: CHO-K1
T1 sequence (P32245 whole entry): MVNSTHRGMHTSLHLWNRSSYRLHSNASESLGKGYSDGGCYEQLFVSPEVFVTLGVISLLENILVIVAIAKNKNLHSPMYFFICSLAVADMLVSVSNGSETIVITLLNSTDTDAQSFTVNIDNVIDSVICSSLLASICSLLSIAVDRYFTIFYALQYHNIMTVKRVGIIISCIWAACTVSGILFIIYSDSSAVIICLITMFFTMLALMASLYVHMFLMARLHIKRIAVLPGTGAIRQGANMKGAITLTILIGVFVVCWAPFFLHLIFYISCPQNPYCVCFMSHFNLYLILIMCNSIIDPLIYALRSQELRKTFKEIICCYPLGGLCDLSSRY
Description: This affinity assay is carried out by measuring the binding of [^125I]-[Nle^4-D-Phe^7]-[…]-MSH to cell membranes. The displacement of this radioligand is used to identify inhibitors of the specific binding to recombinant melanocortin receptors.
For this assay, membranes prepared from CHO-K1 cells expressing the human MC4 receptor at high density (Euroscreen) or membranes, that were purchased (Perkin Elmer Life Sciences, Receptor Biology), of HEK-293 cells expressing hMC3 receptors were used. CHO-K1 cells transfected with the hMC4 receptor gene (Euroscreen) are seeded into DMEM/Nutrient Mix F12 culture medium containing 10% foetal calf serum (Biowhittaker), 1% sodium pyruvate, 1% L-glutamine, 1% non-essential amino acids, 0.4 mg/ml geneticin (G418) and 0.5% PenStrep, these products being provided by Gibco/BR1, except the calf serum. At 80% confluency, the cells are scraped off and the cell pellets are frozen at −80° C.
A tube of cells (approximately 70×10^6 cells) is thawed on ice and resuspended in 10 ml of binding buffer [25 mM HEPES, pH 7.0, 1 mM MgCl2, 1.5 mM CaCl2, 100 mM NaCl, 1 mM 1,10-phenanthroline and 1 tablet of Complete^TR (protease inhibitor from Roche) in 50 ml of buffer] using a polytron for 20 seconds. […] The nonspecific binding is defined by NDP-[…]MSH at 10^−7 M. The total binding is measured by the number of counts per minute in the presence of the radioligand alone. […]

[2] = biological target: T2, human MC3 receptor (Homo sapiens, UniProt P41968); experiment: Functional agonist assay: cAMP formation in CHO(dhfr-) cells expressing the human MC3 receptor; assay type: cell-based; conditions: 1 hour incubation, 50% of the maximum stimulation obtained with the compound, read-out: EC50 with respect to the MC3 receptor
T2 construct: expressed in transfected cells; host or cells: CHO(dhfr-)
T2 sequence (P41968 whole entry): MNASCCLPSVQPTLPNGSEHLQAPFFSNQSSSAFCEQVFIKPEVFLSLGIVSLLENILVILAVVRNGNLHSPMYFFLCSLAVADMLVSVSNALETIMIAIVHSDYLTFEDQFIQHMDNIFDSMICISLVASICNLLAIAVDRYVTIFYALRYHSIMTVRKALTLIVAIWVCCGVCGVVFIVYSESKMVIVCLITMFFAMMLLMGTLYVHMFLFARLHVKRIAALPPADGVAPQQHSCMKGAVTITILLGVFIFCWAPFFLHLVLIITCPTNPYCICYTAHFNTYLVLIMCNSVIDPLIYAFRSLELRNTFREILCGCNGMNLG
Description: (§1) A functional assay is used to differentiate between the agonist activity and the antagonist activity. For this, the formation of cyclic adenosine monophosphate (cAMP) generated by activation of the MC3 receptor or of the MC4 receptor is assayed.
CHO(dhfr-) cells expressing the human MC3 receptor are seeded into MEM Eagle culture medium (Sigma) containing 10% of dialysed calf serum, 1% L-glutamine, 1% sodium pyruvate, 20 mg/500 ml L-proline, 0.3 mg/ml Geneticin and 0.5% PenStrep, these products being provided by Gibco/BRI, except for the dialysed calf serum (Cambrex) and the L-proline (Sigma).
(§2) The compounds to be tested (diluted in 10% DMSO), in an amount of 10 μl at a concentration of 10 times the final concentration, are added to the plates of cells (final volume=100 μl/well). After incubation for 1 hour (37° C., 5% CO2), the amount of cAMP is assayed using Tropix kits (Appelera) according to the supplier's documentation. The intrinsic activity of the compounds is calculated by comparing the stimulation of cAMP by these compounds to the stimulation induced by 30 nM of NDP[…]MSH (maximum of 100%). The EC50 value for the compounds corresponds to the concentration which produces 50% of the maximum stimulation obtained with this compound.

[3] = biological target: T1, human MC4 receptor; experiment: Functional agonist assay: cAMP formation in CHO-K1 cells expressing the human MC4 receptor; assay type: cell-based; conditions: 1 hour incubation, 50% of the maximum stimulation obtained with the compound, read-out: EC50 with respect to the MC4 receptor
Description: as §1
CHO-K1 cells, expressing the human MC4 receptor at a moderate density (Euroscreen), are seeded into DMEM/Nutrient Mix F12 culture medium (Gibco/BR1) containing 10% of foetal calf serum, 0.5% sodium pyruvate, 1% L-glutamine, 1% non-essential amino acids, 200 mg/l hygromycin B and 0.5% PenStrep, these products being provided by Gibco/BR1, except the calf serum (Biowhittaker) and hygromycin B (Sigma).
as §2

| Compound | melting point [°C] | other results |
| --- | --- | --- |
| CCN(CC)C(=O)N(C1CCCCC1)C1CC2CCC(C1)N2C(=O)[C@@H](Cc1ccc(Cl)cc1)NC1CCNC1 (stereo partly shown) (as salt: HCl) | 220 | – |
| CCN(CC)C(=O)N(C1CCCCC1)C1CC2CCC(C1)N2C(=O)[C@@H](Cc1ccc(Cl)cc1)NC1CCSC1 (stereo partly shown) (as salt: HCl) | > 200 | – |
| CCN(CC)C(=O)N(C1CCCCC1)C1CC2CCC(C1)N2C(=O)[C@@H](Cc1ccc(Cl)cc1)NC1CCC(N)CC1 (stereo partly drawn) (as salt: HCl) [compound 3, N-{8-[N-(4-aminocyclohexyl)-4-chloro-D-phenylalanyl]-8-azabicyclo[3.2.1]oct-3-yl}-N-cyclohexyl-N′,N′-diethylurea] | 208 | – |
| CCN(CC)C(=O)N(C1CCCCC1)C1CC2CCC(C1)N2C(=O)[C@@H](Cc1ccc(Cl)cc1)NC1CCC(N)CC1 (stereo partly drawn) [compound 3, N-{8-[N-(4-aminocyclohexyl)-4-chloro-D-phenylalanyl]-8-azabicyclo[3.2.1]oct-3-yl}-N-cyclohexyl-N′,N′-diethylurea] | – | IC50 [1]: 280 nM; EC50 [2]: 330 nM; EC50 [3]: 28 nM |

Further lines, with some results ahead:

| melting point [°C] | Compound | other results |
| --- | --- | --- |
| 105 | CCN(CC)C(=O)N(C1CCCCC1)C1CC2CCC(C1)N2C(=O)[C@@H](Cc1ccc(Cl)cc1)NCCN (stereo partly shown) (as salt: HCl) | – |
| 215 | CCN(CC)C(=O)N(C1CCCCC1)C1CC2CCC(C1)N2C(=O)[C@@H](Cc1ccc(Cl)cc1)NCCCN (stereo partly shown) (as salt: HCl) | – |
| 132 | CCN(CC)C(=O)N(C1CCCCC1)C1CC2CCC(C1)N2C(=O)[C@@H](Cc1ccc(Cl)cc1)NC(C)/C=N/O (stereo partly shown) (as salt: HCl) | – |
| 170 | CCN(CC)C(=O)N(C1CCCCC1)C1CC2CCC(C1)N2C(=O)[C@@H](Cc1ccc(Cl)cc1)NC1CNC1 (stereo partly shown) (as salt: HCl) | – |
